Where a SMILES comes first, the peptide text is derived from it.
Experiments:
[1] = test system: S. aureus (Liberec) biofilm; assay: Bacterial biofilm, remaining metabolic activity (MTT); type: cell-based, Staphylococcus aureus; details: remaining metabolic activity of biofilm, 20 h
Method: (§1) Inoculum of S. aureus (Liberec) or P. aeruginosa (Liberec) cultivated overnight in BHI medium was diluted with fresh BHI medium containing 1% glucose to a final concentration to be ca. 10^8 CFU/ml. Then this was pipetted (100 μl) to 96-multiwell polystyrene plate which was incubated at 37° C. under rotary shaking (300 RPM) for 24 h. Medium without bacteria in the wells was used as a negative control. Supernatant from each well was drained and the biofilm formed on the bottom and on the walls of the wells was cautiously washed three times by sterile physiological solution (300 μl). The peptides tested in the concentrations of 1-128 μmol.l^−1 were prepared by twofold serial dilution of their stock solution (1 mmol.l^−1) in fresh BHI medium and then pipetted (100 μl) to the wells with formed biofilms. The biofilms covered by BHI medium without peptide were used as a positive control. The plates were then incubated for 20 h as described above. After that the liquid was drained out and wells were washed twice with sterile physiological solution.
(§2) The metabolic activity of surviving bacterial cells in the biofilm was determined by staining with MTT (3-(4,5-dimethylthiazol-2-yl)-2,5-diphenyl-2H-tetrazolium bromide) as follows: The mixture of BHI medium (100 μl) and 10 μl of the stock solution of MTT (5 mg/ml in physiological solution) was added to each well and the plate was incubated 40 min at 37° C. The liquid was drained out and the insoluble formazan crystals formed by reduction inside the biofilm were dissolved with dimethyl sulphoxide (100 μl). The intensity of staining in each well was measured as absorbance at 540 nm on a Tecan Infinite M200 Pro reader (Tecan GmbH, Austria). Remaining activity of surviving cells inside the biofilm was expressed for each well in percentage according to the following equation:
(§3) [formula] where A is the absorbance of the tested compound, ABL is the absorbance of the negative control, and AC is the absorbance of control biofilm.

[2] = in vitro; details: human
Method: The peptides in the concentrations 2-200 μmol.l^−1 were incubated with the suspension of human red blood cells (5% v/v) for 1 h at 37° C. in a physiological solution at a final volume of 0.2 ml. The samples were then centrifuged for 5 min at 250 g, and the absorbance of the supernatant was determined at 540 nm. Supernatants of red blood cells suspended in physiological solution and in 0.2% (v/v) TRITON X100 in physiological solution served as controls for zero hemolysis (blank) and 100% hemolysis, respectively. Hemolytic activity is expressed as the peptide concentration required for lysis of 50% of human erythrocytes in the assay (LC50).

[3] = test system: Candida albicans (Olomouc) biofilm; assay: C. albicans biofilm, remaining metabolic activity (XTT); type: cell-based
Method: Candida albicans (Olomouc) was sub-cultured overnight in YPD medium (10 g yeast extract (DIFCO, USA), 20 g peptone (OXOID), 20 g glucose (Penta) dissolved in 1 L of distilled water) at constant shaking (100 RPM) at 37° C. Next day, the overnight culture was diluted 1:100 into fresh YPD medium and incubated at constant shaking (200 RPM) at 37° C. until the mid-exponential growth phase was reached. Then the cells were harvested and washed twice by centrifugation in physiological solution (5000 RPM; 5 min). Cells were suspended in sterile salt solution and their optical density was determined at 600 nm.
A final yeast suspension was prepared at a cell density of 1×10^6 CFU (corresponding to optical density of 0.17 at 600 nm) in RPMI 1640 medium with L-glutamine (BioSera), NaHCO3 (2 g/l; Penta) and 0.165 mol.l^−1 MOPS (Duchefa)—further as RPMI broth medium 1.
Biofilms were formed on commercially available sterile, polystyrene, flat-bottomed, 96-well microtiter plates (TPP, SW). Cell suspension (100 μl) was pipetted into selected wells of a microtiter plate and incubated without shaking for 2 hours at 37° C. Afterwards, the wells were washed twice with sterile PBS buffer (1.44 g Na2HPO4, 0.24 g KH2PO4, 0.2 g KCl and 8 g NaCl in 1 l distilled water, pH=7; Penta). Fresh RPMI broth medium 1 (100 μl) was added to each well and the plate was sealed with parafilm and incubated without shaking for 48 hours at 37° C.
Planktonic and non-adherent cells were removed by threefold washing of the biofilm with sterile PBS buffer (200 μl). A twofold serial dilution was used to reach required peptide concentration (in RPMI broth medium 1) in each well. Peptide concentrations range was between 0.39-200 μmol.l^−1. Plates were then sealed with parafilm and incubated for 20 hours at 37° C.
The metabolic activity of surviving Candida cells in the treated biofilm was determined by staining with XTT (2,3-Bis(2-methoxy-4-nitro-5-sulphophenyl)-2H-tetrazolium-5-carboxanilide). Stock solution of PMS (phenazine methosulfate; 7.5 g/l; SIGMA, Czech Republic) stored at −20° C. was diluted in PBS buffer 1:100. Diluted PMS was further mixed (2:25) with stock solution of XTT (0.5 g/l; Alchimica, Slovakia) dissolved in PBS/RPMI broth medium (1:1). Mixture (100 μl) of PMS and XTT was added into treated biofilm in the wells and incubated for 90 min at 37° C. Then the intensity of staining in each well was measured as absorbance at 540 nm on a Tecan Infinite M200 Pro reader (Tecan GmbH, Austria). Remaining metabolic activity of the cells in the biofilm was expressed for each well in percentage and calculated as follows:
[formula] where A is the absorbance of tested compound, ABL is the absorbance of negative control and AC is the absorbance of control untreated biofilm. The non-inoculated wells served as negative control. Inoculated wells not treated with compound served as positive control. Amphotericin B was used as control drug to ensure quality of Candida albicans. The values of remaining metabolic activity of treated biofilms are shown at Table 5.

[4] = test system: P. aeruginosa (Liberec) biofilm; assay: Bacterial biofilm, remaining metabolic activity (MTT); type: cell-based, Pseudomonas aeruginosa; details: remaining metabolic activity of biofilm, 20 h
Method: as §1, §2, §3

[5] = peptide concentration 8 μmol · l^−1
[6] = peptide concentration 16 μmol · l^−1
[7] = peptide concentration 32 μmol · l^−1
[8] = peptide concentration 64 μmol · l^−1
[9] = peptide concentration 128 μmol · l^−1
[10] = peptide concentration 6.25 μmol · l^−1, 20 hours
[11] = peptide concentration 12.5 μmol · l^−1, 20 hours
[12] = peptide concentration 25 μmol · l^−1, 20 hours
[13] = peptide concentration 50 μmol · l^−1, 20 hours
[14] = peptide concentration 100 μmol · l^−1, 20 hours
[15] = peptide concentration 200 μmol · l^−1, 20 hours

Compound	Metabolic activity (%) S. aureus (Liberec) [1, 5]	Metabolic activity (%) S. aureus (Liberec) [1, 6]	Metabolic activity (%) S. aureus (Liberec) [1, 7]	Metabolic activity (%) S. aureus (Liberec) [1, 8]	Metabolic activity (%) S. aureus (Liberec) [1, 9]	CC50 at 1 h [2]	Metabolic activity of C. albicans (%) [3, 10]	Metabolic activity of C. albicans (%) [3, 11]	Metabolic activity of C. albicans (%) [3, 12]	Metabolic activity of C. albicans (%) [3, 13]	Metabolic activity of C. albicans (%) [3, 14]	Metabolic activity of C. albicans (%) [3, 15]	Metabolic activity (%) P. aeruginosa (Liberec) [4, 5]	Metabolic activity (%) P. aeruginosa (Liberec) [4, 6]	Metabolic activity (%) P. aeruginosa (Liberec) [4, 7]	Metabolic activity (%) P. aeruginosa (Liberec) [4, 8]	Metabolic activity (%) P. aeruginosa (Liberec) [4, 9]
CC[C@@H](C)[C@@H](NC(=O)CN)C(=O)N[C@H](CC(C)C)C(=O)N[C@H](CO)C(=O)N[C@H](CO)C(=O)N[C@H](CC(C)C)C(=O)N[C@H](CC(C)C)C(=O)N[C@H](CCCCN)C(=O)N[C@H](CCCCN)C(=O)N[C@H](CC(C)C)C(=O)N[C@H](CCCCN)C(=O)N[C@H](CCCCN)C(=O)N[C@@H](C(=O)N[C@@H](C(=O)N[C@H](C)C(=O)N[C@H](CCCCN)C(N)=O)[C@H](C)CC)[C@H](C)CC [IV] (HELM PEPTIDE1{G.[dI].[dL].[dS].[dS].[dL].[dL].[dK].[dK].[dL].[dK].[dK].[dI].[dI].[dA].[dK].[am]}$$$$V2.0)	65.5%	34.2%	7.1%	3.0%	0.0%	333 µM	106.9%	37.2%	6.0%	2.3%	2.1%	0.5%	56.5%	69.5%	56.0%	59.6%	21.7%
H-GILSSLWKKLKKIIAK-NH2 [XII]	52.2%	31.5%	18.9%	14.7%	1.0%	197 µM	86.8%	80.3%	94.8%	63.6%	6.2%	3.2%	77.3%	69.3%	66.9%	44.4%	57.9%

From patent US10160785B2, “Antimicrobial peptides and their use for the treatment of topical infections” (priority 2015, dated 2018)
